These results are taken from patent US20250360134A1, “6-6 OR 5-6 FUSED BICYCLIC COMPOUNDS COMPRISING A PYRI(MI)DINE RING USEFUL IN THE|TREATMENT OF INFECTIOUS DISEASES” (INSTITUT NATIONAL DE LA SANTE ET DE LA RECHERCHE MEDICALE …, priority 2020, published 2025).

Where a name gives a salt, the structure may show the parent alone. Read-outs that look alike come from different tables or passages of the source.

As a reminder, the IC50 is the point on the concentration scale where inhibition reaches its midpoint.

Assay [1] deals with Plasmodium falciparum 3D7. The assay is described as follows: In vitro antiplasmodial activity, SYBR Green I, strain 3D7.
Protocol: (§1) The in vitro antiplasmodial activities were tested over concentrations ranging from 39 to 40 μm against culture-adapted Plasmodium falciparum: reference strains 3D7 and W2. […] The parasites were cultivated in RPMI medium (Sigma-Aldrich, Lyon, France) supplemented with 0.5% Albumax I (Life Technologies Corporation, Paisley, UK), hypoxanthine (Sigma-Aldrich), and gentamicin (Sigma-Aldrich) with human erythrocytes and were incubated at 37° C. in a candle jar, as described in Desjardins R E et al., Antimicrob Agents Chemother, 1979; 16:710-18.
(§2) The P. falciparum drug susceptibility test was carried out in 96-well flat bottom sterile plates in a final volume of 250 μL. After a 48-hour incubation with the drugs, quantities of DNA in treated and control cultures of parasites in human erythrocytes were quantified using the SYBR Green I (Sigma-Aldrich) fluorescence-based method as described in Bennett T N et al, Antimicrob Agents Chemother, 2004; 48:1807-10. Briefly, after incubation, plates were frozen at −20° C. until use. Plates were then thawed for 2 hours at room temperature, and 100 μL of each homogenized culture was transferred to a well of a 96-well flat bottom sterile black plate (Nunc, Inc., Rochester, NY) that contained 100 μL of the SYBR Green I lysis buffer (2×SYBR Green, 20 mM Tris base pH 7.5, 5 mM EDTA, 0.008% w/v saponin, 0.08% w/v Triton X-100). […] Plates were incubated for 1 hour at room temperature and then read on a fluorescence plate reader (Tecan, Grödig, Austria) using excitation and emission wavelengths of 485 and 535 nm, respectively. Concentrations inhibiting 50% of the parasite's growth (half maximal inhibitory concentration or IC50 values) were then calculated from the obtained experimental results by non-linear regression analysis of data from dose-response curves, using TableCurve 2D version 5.0 software (Systat Software, San Jose, CA). IC50 values are reported as means calculated from three independent experiments, as described in H. Kaddouri et al., Antimicrob.
In another assay the test system is Plasmodium falciparum W2. Description: In vitro antiplasmodial activity, SYBR Green I, strain W2.
For assay [2], the system named is T. brucei brucei AnTat 1.9. Description: In vitro antitrypanosomal activity, Alamar Blue assay. The format is cell-based, Trypanosoma brucei brucei. Conditions: Trypanosoma brucei, read-out: IC50 T. brucei brucei. Here is the method: The effects of the tested compounds on the growth of T. brucei brucei were assessed using an Alamar Blue® assay described in B. Raz et al., Acta Trop. 1997, 68, 139. T. brucei brucei AnTat 1.9 (IMTA, Antwerpen, Belgium) was cultured in MEM with Earle's salts, supplemented according to the protocol disclosed in T. Baltz et al., EMBO J. 1985, 4, 1273, with the following modifications: 0.5 mM mercaptoethanol (Sigma-Aldrich), 1.5 mM 1-cysteine (Sigma-Aldrich), 0.05 mM bathocuproine sulfate (Sigma-Aldrich), and 20% heat-inactivated horse serum (Gibco, France) at 37° C. and 5% CO2. Samples were incubated at an average density of 2000 parasites/well in sterile 96-well plates (Fisher, France) with various concentrations of compounds dissolved in 0.9% NaCl. All doses were tested in duplicate. Appropriate controls treated with solvents 0.9% NaCl or DMSO or with suramin, pentamidine, eflornithine, and fexinidazole (reference drugs purchased from Sigma-Aldrich and Fluorochem, UK) were added to each set of experiments. After a 69-hour incubation at 37° C., 10 μl of the viability marker Alamar Blue (Fisher) was added to each well, and the plates were incubated for 5 hour. The plates were read in a PerkinElmer ENSPIRE (Germany) microplate reader using an excitation wavelength of 530 nm and an emission wavelength of 590 nm. The IC50 was defined as the concentration of drug necessary to inhibit by 50% the activity of T. brucei brucei compared to the control. IC50 values were calculated using a non-linear regression analysis of dose-response curves performed using GraphPad Prism software (USA). IC50 values were calculated from three independent experiments.
For orientation: Alamar Blue is a resazurin reagent that responds to reducing activity.

Assay [3] has as its system human telomeric sequence F21T. Description: FRET-melting, F21T. The note with it: K+ condition, 2 μM compound, 0.2 μM oligonucleotide.
For assay [4], the system named is human duplex sequence FdxT. The assay is described as follows: FRET-melting, FdxT. Conditions: duplex control, K+ condition, 2 μM compound, 0.2 μM oligonucleotide.
The subject of assay [5] is Plasmodium telomeric sequence FPf8T. The assay is described as follows: FRET-melting, FPf8T. The note with it: K+ condition, 2 μM compound, 0.2 μM oligonucleotide.
The subject of assay [6] is Plasmodium telomeric sequence FPf1T. Description: FRET-melting, FPf1T. Conditions: K+ condition, 2 μM compound, 0.2 μM oligonucleotide.
Assay [7] has as its system Trypanosoma 9 and 11 chromosomic sequence FTrypBT. Description: FRET-melting, FTrypBT. The note with it: K+ condition, 2 μM compound, 0.2 μM oligonucleotide.
The mark [8] stands for this setting: Plasmodium falciparum, 3D7, 48 h, read-out: IC50 Plasmodium falciparum 3D7, chloroquine-sensitive strain 3D7, 48-hour incubation.
The mark [9] stands for this setting: Plasmodium falciparum, W2, 48 h, read-out: IC50 Plasmodium falciparum W2, chloroquine-resistant strain W2, 48-hour incubation.
Where [10] appears, read: 69-hour incubation, Alamar Blue.
The mark [11] stands for this setting: read-out: IC50 Plasmodium falciparum 3D7, chloroquine-sensitive strain 3D7, 48-hour incubation, oxalate.
Where [12] appears, read: read-out: IC50 Plasmodium falciparum 3D7, chloroquine-sensitive strain 3D7, 48-hour incubation.
The mark [13] stands for this setting: read-out: IC50 Plasmodium falciparum W2, chloroquine-resistant strain W2, 48-hour incubation.

Protocol for Plasmodium falciparum W2: as §1, §2

Take `CN(C)CCCNCc1ccc(-n2ccc3c(-c4ccccc4)nc(-c4ccccc4)nc32)cc1` [Compound 12B, 7-(4-[(3-Dimethylaminopropyl)aminomethyl]phenyl)-2,4-diphenyl-7H-pyrrolo[2,3-d]pyrimidine oxalate]: the IC50 was 380 ± 250 nM in assay [1] (setting [8]) and 9140 nM in the assay with Plasmodium falciparum W2 (setting [9]).
With `CN1CCN(CCCNCc2ccc(-c3nc(Cl)nc4c3ccn4-c3ccccc3)cc2)CC1` [Compound 18B, 2-chloro-4-{4-[(3-(4-methylpiperazin-1-yl)propyl)aminomethyl]phenyl}-7-phenyl-7H-pyrrolo[2,3-d]pyrimidine oxalate], the IC50 worked out at 680 ± 130 nM in assay [1] (setting [8]), 6960 ± 650 nM with Plasmodium falciparum W2 (setting [9]) and 60 nM in assay [2] (69 h).
In the case of `CN(C)CCCNCc1ccc(-c2nc3c(c(-c4ccc(CNCCCN(C)C)cc4)n2)CCN(C(=O)OC(C)(C)C)C3)cc1` [Compound 24B, Tert-butyl 2,4-bis{4-[(3-dimethylaminopropyl)aminomethyl]phenyl})-5,6-dihydropyrido[3,4-d]pyrimidine-7(8H)-carboxylate oxalate], in assay [3], the “FRET-melting values in K+ conditions at 2 μM ΔTm F21T” value is 10.3 °C. Further, the “FRET-melting values in K+ conditions at 2 μM ΔTm FdxT” value in assay [4] is −0.7 °C. Further, the “FRET-melting values in K+ conditions at 2 μM ΔTm FPf8T” value in assay [5] came out at 11.6 °C. For the same molecule, the figures for the half-maximal inhibitory concentration (IC50) (in assay [1] (setting [8]); in the assay on Plasmodium falciparum W2 (setting [9]); in assay [2] (setting [10])) were 1630 ± 250 nM, 180 ± 40 nM and 780 ± 60 nM, respectively. Moreover, in assay [6], the “FRET-melting values in K+ conditions at 2 μM ΔTm FPf1T” value worked out at 9.1 °C. Moreover, in assay [7], the “FRET-melting values in K+ conditions at 2 μM ΔTm FtryBT” value is 7.6 °C.
In the case of `CN(C)CCCCCNCc1ccc(-c2nc(-c3ccc(CNCCCCCN(C)C)cc3)c3cnn(-c4ccccc4)c3n2)cc1` [Compound 38B, 4,6-Bis{4-[(5-dimethylaminopentyl)aminomethyl]phenyl}-1-phenyl-1H-pyrazolo[3,4-d]pyrimidine oxalate], the IC50 is 350 ± 90 nM in assay [1] (setting [11]) and 4730 ± 280 nM in the assay on Plasmodium falciparum W2 (read-out: IC50 Plasmodium falciparum W2, chloroquine-resistant strain W2, 48-hour incubation, oxalate).
In the case of `CN(C)CCCCNCc1ccc(-c2nc(-c3ccc(CNCCCCN(C)C)cc3)c3ncn(-c4ccccc4)c3n2)cc1` [Compound 40B, 2,4-Bis{4-[(4-dimethylaminobutyl)aminomethyl]phenyl}-7-phenyl-7H-imidazo[4,5-d]pyrimidine oxalate], in assay [3], the “FRET-melting values in K+ conditions at 2 μM ΔTm F21T” value amounted to 31.68 °C. Moreover, in assay [4], the “FRET-melting values in K+ conditions at 2 μM ΔTm FdxT” value was 8.51 °C. In addition, the “FRET-melting values in K+ conditions at 2 μM ΔTm FPf8T” value in assay [5] worked out at 33.9 °C. In addition, the half-maximal inhibitory concentration (IC50) came out at 4740 ± 900 nM in assay [1] (setting [8]) and 1770 ± 90 nM in the assay with Plasmodium falciparum W2 (setting [9]). For the same molecule, the “FRET-melting values in K+ conditions at 2 μM ΔTm FPf1T” value in assay [6] was 35.1 °C. The “FRET-melting values in K+ conditions at 2 μM ΔTm FtryBT” value in assay [7] came to 30.3 °C.
With `COC(=O)C(N)CCCCNCc1ccc(-c2nc(-c3ccc(CNCCCCC(N)C(=O)OC)cc3)c3ccn(C)c3n2)cc1` (stereo not drawn) [Compound 11B, 2,4-Bis{4-[(5-amino-5-(methoxycarbonyl)pentyl)aminomethyl]phenyl}-7-methyl-7H-pyrrolo[2,3-d]pyrimidine oxalate], the figures for the half-inhibitory concentration (IC50) (in assay [1] (setting [8]); in the assay on Plasmodium falciparum W2 (setting [9]); in assay [2] (setting [10])) were greater than 40000 nM, 70 ± 10 nM and 5040 ± 730 nM, respectively.
Regarding `CN(C)CCCCNCc1ccc(-c2nc(-c3ccc(CNCCCCN(C)C)cc3)c3cnn(-c4ccccc4)c3n2)cc1` [Compound 37B, 4,6-Bis{4-[(4-dimethylaminobutyl)aminomethyl]phenyl}-1-phenyl-1H-pyrazolo[3,4-d]pyrimidine], the IC50 with Plasmodium falciparum W2 (setting [9]) came to 1180 ± 120 nM.
As for `CN(C)CCCCCNCc1ccc(-c2nc(-c3ccc(CNCCCCCN(C)C)cc3)c3cnn(-c4ccccc4)c3n2)cc1` [Compound 41B], the “FRET-melting values in K+ conditions at 2 μM ΔTm F21T” value in assay [3] was 34.0 °C. The “FRET-melting values in K+ conditions at 2 μM ΔTm FdxT” value in assay [4] worked out at 9.7 °C. In addition, in assay [5], the “FRET-melting values in K+ conditions at 2 μM ΔTm FPf8T” value stood at 34.9 °C. For the same molecule, the IC50 in assay [1] (setting [12]) was found to be 1990 ± 900 nM; with Plasmodium falciparum W2 (setting [13]), 1990 ± 120 nM. In addition, the “FRET-melting values in K+ conditions at 2 μM ΔTm FPf1T” value in assay [6] worked out at 36.4 °C. In assay [7], the “FRET-melting values in K+ conditions at 2 μM ΔTm FtryBT” value amounted to 33.0 °C.
Regarding `CN(C)CCCNCc1ccc(-n2ccc3c(-c4ccccc4)nc(Cl)nc32)cc1` [Compound 22B, 2-Chloro-7-(4-[(3-dimethylaminopropyl)aminomethyl]phenyl)-4-phenyl-7H-pyrrolo[2,3-d]pyrimidine oxalate], the IC50 in assay [1] (setting [8]) is 800 ± 410 nM; in the assay with Plasmodium falciparum W2 (setting [9]), 730 ± 220 nM; in assay [2] (69 h), 30 nM.
`CN1CCN(CCCCNCc2ccc(-c3nc(-c4ccc(CNCCCCN5CCN(C)CC5)cc4)c4cnn(-c5ccccc5)c4n3)cc2)CC1` [Compound 42B]: the “FRET-melting values in K+ conditions at 2 μM ΔTm F21T” value in assay [3] was determined as 30.2 °C. For the same molecule, the “FRET-melting values in K+ conditions at 2 μM ΔTm FdxT” value in assay [4] was 6.8 °C. Further, the “FRET-melting values in K+ conditions at 2 μM ΔTm FPf8T” value in assay [5] was found to be 32.1 °C. The IC50 turned out to be 700 ± 150 nM in assay [1] (setting [12]) and 2370 ± 130 nM in the assay on Plasmodium falciparum W2 (setting [13]). In addition, the “FRET-melting values in K+ conditions at 2 μM ΔTm FPf1T” value in assay [6] stood at 33.2 °C. Also, the “FRET-melting values in K+ conditions at 2 μM ΔTm FtryBT” value in assay [7] is on record as 30. ° C.
Regarding `CN(C)CCCNCc1cc(-c2nc(Cl)nc3c2ccn3-c2ccccc2)cs1` [Compound 20B, 2-Chloro-4-{2-[(3-dimethylaminopropyl)aminomethyl]thien-4-yl}-7-phenyl-7H-pyrrolo[2,3-d]pyrimidine oxalate], the IC50 is 590 ± 170 nM in assay [1] (setting [8]), 13600 ± 430 nM in the assay on Plasmodium falciparum W2 (setting [9]) and 80 nM in assay [2] (69 h).
Consider `CN1CCN(CCCCNCc2ccc(-c3nc(-c4ccc(CNCCCCN5CCN(C)CC5)cc4)c4cnn(-c5ccccc5)c4n3)cc2)CC1` [Compound 39B, 4,6-Bis{4-[(4-(4-methylpiperazin-1-yl)butyl)aminomethyl]phenyl}-1-phenyl-1H-pyrazolo[3,4-d]pyrimidine oxalate], for which the half-inhibitory concentration (IC50) in assay [1] (setting [11]) stood at 1830 ± 470 nM; in the assay with Plasmodium falciparum W2 (setting [9]), 1530 ± 90 nM.
With `CN1CCN(CCCNCc2ccc(-n3ccc4c(-c5ccccc5)nc(Cl)nc43)cc2)CC1` [Compound 23B, 2-Chloro-7-(4-[(3-(4-methylpiperazin-1-yl)propyl)aminomethyl]phenyl)-4-phenyl-7H-pyrrolo[2,3-d]pyrimidine oxalate], the IC50 amounted to 380 ± 250 nM in assay [1] (setting [8]) and 9140 nM with Plasmodium falciparum W2 (setting [9]).
`CN(C)CCCNCc1ccc(-c2nc(Cl)nc3c2ncn3-c2ccccc2)cc1` [Compound 43B, 2-Chloro-4-{4-[(3-dimethylaminopropyl)aminomethyl]phenyl}-7-phenyl-7H-imidazo[4,5-d]pyrimidine oxalate]: the “FRET-melting values in K+ conditions at 2 μM ΔTm F21T” value in assay [3] came out at 1.7 °C. In assay [4], the “FRET-melting values in K+ conditions at 2 μM ΔTm FdxT” value came out at 0.04 °C. In assay [5], the “FRET-melting values in K+ conditions at 2 μM ΔTm FPf8T” value came to 3.3 °C. The results for the IC50 (in assay [1] (setting [8]); in the assay with Plasmodium falciparum W2 (setting [9])) were 1530 ± 390 nM and 830 ± 170 nM, respectively. The “FRET-melting values in K+ conditions at 2 μM ΔTm FPf1T” value in assay [6] was found to be 2.4 °C. In assay [7], the “FRET-melting values in K+ conditions at 2 μM ΔTm FtryBT” value was found to be 2.7 °C.
On to `CN(C)CCCNCc1ccc(-c2cc(Cl)nc3c2ccn3-c2ccccc2)cc1` [Compound 47B, 6-Chloro-4-{4-[(3-dimethylaminopropyl)aminomethyl]phenyl}-1-phenyl-1H-pyrrolo[2,3-b]pyridine oxalate], for which the “FRET-melting values in K+ conditions at 2 μM ΔTm F21T” value in assay [3] was found to be 2.8 °C. Moreover, the “FRET-melting values in K+ conditions at 2 μM ΔTm FdxT” value in assay [4] was −0.2 °C. Further, the “FRET-melting values in K+ conditions at 2 μM ΔTm FPf8T” value in assay [5] is 4.0 °C. The 50% inhibitory concentration (IC50) was 150 ± 20 nM in assay [1] (setting [8]) and 720 ± 300 nM in the assay on Plasmodium falciparum W2 (setting [9]). Moreover, the “FRET-melting values in K+ conditions at 2 μM ΔTm FPf1T” value in assay [6] worked out at 3.3 °C. Besides, the “FRET-melting values in K+ conditions at 2 μM ΔTm FtryBT” value in assay [7] worked out at 4.3 °C.
Turning to `CN(C)CCCNCc1ccc(-c2nc(-c3ccc(CNCCCN(C)C)cc3)c3cnn(-c4ccccc4)c3n2)cc1` [Compound 36B, 4,6-Bis{4-[(3-dimethylaminopropyl)aminomethyl]phenyl}-1-phenyl-1H-pyrazolo[3,4-d]pyrimidine oxalate], the IC50 in assay [1] (setting [8]) is 2510 ± 250 nM; with Plasmodium falciparum W2 (setting [9]), 930 ± 150 nM.
